The text below walks through data of the OligoGym collection.

Values joined by “and” are separate entries in the source; they are usually repeats but may differ in a detail not shown here. Equal values may be shown once. After the bases stand the sugars from the 5' end (letter, count) and the backbone: PS all phosphorothioate, else s phosphorothioate and o phosphodiester by linkage. Methylation of C is not given here. k = constrained ethyl (cEt); d = 2'-deoxy (DNA)

In the data set the target is MALAT1. As to conditions: ASO, A431, 0.005 µM.
In the case of ATCAAGTCAAGCTCCT (sugars k3 d10 k3, PS), the target mRNA inhibition was determined as 11%.

As for ATCACAAATACGACTG (sugars k3 d10 k3, PS), the target mRNA inhibition came out at 34%. The value for ATCAGGTGAGGCTGAC (sugars k3 d10 k3, PS) was 23%.

ATCCCCCCCAAGATTG (sugars k3 d10 k3, PS): the target mRNA inhibition worked out at 5%.

Consider ATCCCTAACATGCAAT (sugars k3 d10 k3, PS), for which the target mRNA inhibition came out at 23%.

Consider ATCCTACCACTCCCAA (sugars k3 d10 k3, PS), for which the target mRNA inhibition was 34%. The value for ATCCTCTACGCACAAC (sugars k3 d10 k3, PS) was 42%; that for ATCCTGAATGGCTTCA (sugars k3 d10 k3, PS) was 0%; that for ATCTAAAAGCATTGCC (sugars k3 d10 k3, PS) was 18%. For the sequence ATCTCAACCTCCGTCA (sugars k3 d10 k3, PS), the target mRNA inhibition is 34%. Under ATCTGTTAACAGCTGC (sugars k3 d10 k3, PS) stands 71% and 76%; under ATCTTAGTAACCTATT (sugars k3 d10 k3, PS), 17%; under ATGCAATACTGCAGAT (sugars k3 d10 k3, PS), 1%. Under ATGCACTAAAGATCAC (sugars k3 d10 k3, PS) stands 34%; under ATGCATTCTAATAGCA (sugars k3 d10 k3, PS), -1%.

As for ATGGACATCTCTTCCA (sugars k3 d10 k3, PS), the target mRNA inhibition stood at 30%.

Regarding ATGGATCATGCCCACA (sugars k3 d10 k3, PS), the target mRNA inhibition is 12%. Turning to ATTAAGAGCTGCTATA (sugars k3 d10 k3, PS), the target mRNA inhibition is -4%. The value for ATTACCTAAACCCACC (sugars k3 d10 k3, PS) was -10%; that for ATTACTCTAATCACTG (sugars k3 d10 k3, PS) was 28%; that for ATTACTCTTGATCTTG (sugars k3 d10 k3, PS) was 71% and 56%. Under ATTAGTAGTCAAAGCA (sugars k3 d10 k3, PS) stands 20%; under ATTCATGAGTATAAGC (sugars k3 d10 k3, PS), 29%.

ATTCCCCAATGGAGGT (sugars k3 d10 k3, PS): the target mRNA inhibition was found to be 36%. Under ATTCGATCACCTTCCG (sugars k3 d10 k3, PS) stands 19%; under ATTCTAATAGCAGCGG (sugars k3 d10 k3, PS), 32%. In the case of ATTGGTATTAATTCGG (sugars k3 d10 k3, PS), the target mRNA inhibition was 70% and 75% and 92%. The value for ATTTAAGGCCTTCCAA (sugars k3 d10 k3, PS) was 30%; that for ATTTTAAACGGGTCAT (sugars k3 d10 k3, PS) was 7%.

For the sequence ATTTTGTCCACTGGTG (sugars k3 d10 k3, PS), the target mRNA inhibition came out at 50%. The value for ATTTTTGAAGCATACC (sugars k3 d10 k3, PS) was 41% and 57%. The value for CAAAGACCTCGACACC (sugars k3 d10 k3, PS) was 18%. Take CAAAGATATTGTGCTG (sugars k3 d10 k3, PS): the target mRNA inhibition was -10%.

CAAATCGCCATGGAAA (sugars k3 d10 k3, PS): the target mRNA inhibition worked out at 14%. The value for CAAATTAATGCACTGG (sugars k3 d10 k3, PS) was 15%; that for CAACAATTTAGAGCTT (sugars k3 d10 k3, PS) was 12%; that for CAACAGCACAGCGGTA (sugars k3 d10 k3, PS) was -5%. The value for CAACATTTGGCCTACT (sugars k3 d10 k3, PS) was 17%; that for CAACCCACCAAAGACC (sugars k3 d10 k3, PS) was 2%.

For CAACTCGCATCACCGG (sugars k3 d10 k3, PS), the target mRNA inhibition was 9%. Under CAACTGGAAGCTCCTT (sugars k3 d10 k3, PS) stands 23%; under CAAGACCAAACTGCAG (sugars k3 d10 k3, PS), -28%; under CAAGGCAAATCGCCAT (sugars k3 d10 k3, PS), 42%. The value for CAATCACAAATACGAC (sugars k3 d10 k3, PS) was 18%. The value for CAATCCACTTGATCCC (sugars k3 d10 k3, PS) was 56% and 44%; that for CAATCCCAACCGTAAC (sugars k3 d10 k3, PS) was 9%; that for CAATCCTGAAATCCCC (sugars k3 d10 k3, PS) was 16%. As for CACACTGGCATGCTGG (sugars k3 d10 k3, PS), the target mRNA inhibition came out at 9%. The value for CACAGCTCGGGCGAGG (sugars k3 d10 k3, PS) was 25%. The value for CACCAATCCCAACCGT (sugars k3 d10 k3, PS) was 5%; that for CACCCAAAAGCCCTCT (sugars k3 d10 k3, PS) was 17%. The value for CACCCTCTAAGAGACA (sugars k3 d10 k3, PS) was 1%; that for CACCTGGGTCAGCTGT (sugars k3 d10 k3, PS) was 25%. Consider CACGAACTGCTGCTTG (sugars k3 d10 k3, PS), for which the target mRNA inhibition stood at 55%.

In the case of CACGGATTTTTACCAA (sugars k3 d10 k3, PS), the target mRNA inhibition was 19%.

Turning to CACGGCCCGCACGGAA (sugars k3 d10 k3, PS), the target mRNA inhibition was -1%. Under CACTCCCAATTAATCT (sugars k3 d10 k3, PS) stands 8%; under CACTCTGATCTGCGGC (sugars k3 d10 k3, PS), -28%; under CACTGCAAGGTCTCAT (sugars k3 d10 k3, PS), 41%. CACTTGATCCCAACTC (sugars k3 d10 k3, PS): the target mRNA inhibition was 44%. Under CACTTTAGAGGCTTTT (sugars k3 d10 k3, PS) stands 42%. CAGAAGCCCCTGCGCT (sugars k3 d10 k3, PS): the target mRNA inhibition was 3%. The value for CAGAGTTTGAGTGGTT (sugars k3 d10 k3, PS) was 16%. As to CAGCACAGCGGTACAC (sugars k3 d10 k3, PS), the target mRNA inhibition amounted to 7%. Under CAGCACATCATGCTAT (sugars k3 d10 k3, PS) stands 15%; under CAGCACGGGCTGTCTG (sugars k3 d10 k3, PS), -33%; under CAGCAGTAGGGCTTCT (sugars k3 d10 k3, PS), -1%. The value for CAGCCTATAAGGACAG (sugars k3 d10 k3, PS) was 22%; that for CAGGACTTGGCAGTCT (sugars k3 d10 k3, PS) was 14%. Under CAGGAGTGCCAACCAC (sugars k3 d10 k3, PS) stands -2%; under CAGGCTATTACCTGAA (sugars k3 d10 k3, PS), -14%; under CAGGGTTATGCTTATT (sugars k3 d10 k3, PS), 75% and 66%. Consider CAGTAACATCTGATTC (sugars k3 d10 k3, PS), for which the target mRNA inhibition is 57% and 78%. Consider CAGTACTGCATTTACT (sugars k3 d10 k3, PS), for which the target mRNA inhibition was found to be 20%.

For the sequence CAGTAGGGCTTCTCAA (sugars k3 d10 k3, PS), the target mRNA inhibition came to 10%.

On to CAGTAGTAAGAATCTC (sugars k3 d10 k3, PS), for which the target mRNA inhibition came out at 54%. The value for CATAACTGATCTGACT (sugars k3 d10 k3, PS) was -5%.

Consider CATATTGCCGACCTCA (sugars k3 d10 k3, PS), for which the target mRNA inhibition is 43%.

For the sequence CATGAGTATAAGCCTG (sugars k3 d10 k3, PS), the target mRNA inhibition was 50%. Under CATGAGTTTATCTGCA (sugars k3 d10 k3, PS) stands -6%; under CATGTGCCTGGAATTA (sugars k3 d10 k3, PS), 26%; under CATTAAGTTGGTAATT (sugars k3 d10 k3, PS), 12%. The value for CATTTATTTCGGCTTC (sugars k3 d10 k3, PS) was 66% and 90%; that for CATTTGGCCTACTCAA (sugars k3 d10 k3, PS) was 34%; that for CCAAACAACTTTTGCA (sugars k3 d10 k3, PS) was 44%.

With CCAACCACTCGCTTTC (sugars k3 d10 k3, PS), the target mRNA inhibition amounted to 26%. In the case of CCAACTAATTGCCAAT (sugars k3 d10 k3, PS), the target mRNA inhibition is 40%. Under CCAACTTGGAAGTTGA (sugars k3 d10 k3, PS) stands 31%; under CCAAGCTACTGGCTGC (sugars k3 d10 k3, PS), 23%. The value for CCAATATTTGCCCCTC (sugars k3 d10 k3, PS) was 40%; that for CCACCAAAGACCTCGA (sugars k3 d10 k3, PS) was 27%.

As to CCACGCCAACACAGTT (sugars k3 d10 k3, PS), the target mRNA inhibition came to 31%. As for CCACTCGCTTTCCCTG (sugars k3 d10 k3, PS), the target mRNA inhibition amounted to 41%. The value for CCACTCTAAGATTGTA (sugars k3 d10 k3, PS) was 40%; that for CCAGCCTATAAGGACA (sugars k3 d10 k3, PS) was -1%. The value for CCAGGAGTGCCAACCA (sugars k3 d10 k3, PS) was 5%. The value for CCAGGCTGGTTATGAC (sugars k3 d10 k3, PS) was 44%.

As for CCATTACGCAACTGAG (sugars k3 d10 k3, PS), the target mRNA inhibition is 12%. The value for CCCAAAAGCCCTCTCA (sugars k3 d10 k3, PS) was 12%.
